# Test results from patent publication US8163718B2, “Nucleoside analogues containing phosphonate or phosphonamide groups” (Gilead Sciences, Inc., priority 2008, dated 2012).
# System: A549
# Experiment: Cytostatic cell culture assay (GI50), SRB
# Assay type: cell-based
# Settings: Homo sapiens, A549, 120 h; 5 days incubation
# Description: (§1) The assay is based on quantification of cell counts by a colorimetric detection of the cell associated proteins. The assay relies on the ability of sulforhodamine B (SRB) to bind to protein components of cells that have been fixed to tissue-culture plates by trichloroacetic acid (TCA). SRB is a bright-pink aminoxanthene dye with two sulfonic groups that bind to basic amino-acid residues under mild acidic conditions, and dissociate under basic conditions. As the binding of SRB is stoichiometric, the amount of dye extracted from stained cells is directly proportional to the cell mass.
# (§2) Cell lines: All cell lines were obtained from ATCC (Manassas, Va.). Cultivation media containing Glutamax, and trypsin were purchased from Invitrogen (Carlsbad, Calif.). Doxorubicin, Clofarabine, TCA and SRB were from Sigma-Aldrich (St. Louis, Mo.). Gemcitabine was obtained from Moravek Biochemicals (Brea, Calif.)
# (§3) • 1. Trypsinize the sub-confluent cells, count them, and adjust the cell concentrations according to the cell counts listed in Table 1. • 2. Distribute the cells into the 96-well plates in 150 μL of media. Incubate the plates overnight in humidified CO2 incubator at 37° C. • 3. Fix one plate of each cell line with TCA. Discard the cultivation media from the plates by flicking them gently and add 100 ul cold 10% (vol/vol) TCA to each well. Incubate the plates at 4 degree refrigerator for 1 hour. Discard TCA from the plates by flicking them gently. Rinse plates four times in a washing basin containing tap water. Store the plates at room temperature. These plates represent cell counts on day zero. • 4. Prepare a set of medium solutions containing various concentrations of tested compounds by making 5-fold serial dilutions in 96-well plate. Add 50 μL of the diluted compounds per well. Include controls with untreated cells and cells treated with doxorubicin, clofarabine and gemcitabine. • 5. Incubate the plates for 5 days at 37° C. • 6. Fix the plates with TCA. Discard the cultivation media from the plates by flicking them gently and add 100 ul cold 10% (vol/vol) TCA to each well. Incubate the plates at 4 degree refrigerator for 1 hour. Discard TCA from the plates by flicking them gently. Rinse plates four times in a washing basin containing tap water. • 7. Remove excess water by tapping the plates face down, gently on a paper towel. Allow the plates to air-dry at room temperature. • 8. Add 100 ul of 0.057% SRB solution in 1% (vol/vol) acetic acid to each well of the plates fixed with TCA on day zero and five. Leave at room temperature for 30 minutes. • 9. Flick the plates gently to discard SRB. Rinse the plates four times with 1% (vol/vol) Acetic Acid. • 10. Store the plates at 37 degree incubator to facilitate faster drying. • 11. Once the plates are completely dry, add 200 ul of 10 mM Tris base solution (pH 10.5) to each well. Leave at room temperature for 30 minutes for SRB to solubilize. • 12. Measure the OD at 500 nm in a microplate reader • 13. Calculate the percentage of cell-growth inhibition using the next formula: % of control cell growth=100×(ODsample−mean ODday0)/(ODneg control−mean ODday0)
# (§4) For GI50 determination, plot a dose-response curve between the compound concentration and percent of growth inhibition. GI50 values can be derived by fitting dose-response curves using sigmoidal dose response equation.
row,Structure (SMILES),GI50
1,"Nc1nc(NC2CC2)c2ncn(CCOCP(=O)(O)O)c2n1 [Example 12, [2-(2-Amino-6-cyclopropylamino-purin-9-yl)-ethoxymethyl]-phosphonic acid]",35000 nM
2,CCOC(=O)[C@H](C)NP(=O)(COCCn1cnc2c(OC)nc(N)nc21)N[C@@H](C)C(=O)OCC [Example 28],736 nM
3,CCCCOC(=O)[C@H](Cc1ccccc1)NP(=O)(COCCn1cnc2c(OCCC)nc(N)nc21)N[C@@H](Cc1ccccc1)C(=O)OCCCC [Example 17],5 nM

# The remaining lines, values ahead:
row,GI50,Structure (SMILES)
1,3700 nM,CCOC(=O)[C@@H]1CCCN1P(=O)(COCCn1cnc2c(NC3CC3)nc(N)nc21)N1CCC[C@H]1C(=O)OCC [Example 50]
2,2420 nM,"COc1nc(N)nc2c1ncn2CCOCP(=O)(O)O [Example 2, [2-(2-Amino-6-methoxy-purin-9-yl)-ethoxymethyl]-phosphonic acid]"

# System: BT-549
# Experiment: Cytostatic cell culture assay (GI50), SRB
# Assay type: cell-based
# Settings: Homo sapiens, BT-549, 120 h; 5 days incubation
# Description: as §1, §2, §3, §4
row,Structure (SMILES),GI50
1,"Nc1nc(NC2CC2)c2ncn(CCOCP(=O)(O)O)c2n1 [Example 12, [2-(2-Amino-6-cyclopropylamino-purin-9-yl)-ethoxymethyl]-phosphonic acid]",70000 nM
2,CCOC(=O)[C@H](C)NP(=O)(COCCn1cnc2c(OC)nc(N)nc21)N[C@@H](C)C(=O)OCC [Example 28],573 nM
3,CCCCOC(=O)[C@H](Cc1ccccc1)NP(=O)(COCCn1cnc2c(OCCC)nc(N)nc21)N[C@@H](Cc1ccccc1)C(=O)OCCCC [Example 17],17 nM

# Now from value to compound:
row,GI50,Structure (SMILES)
1,1620 nM,CCOC(=O)[C@@H]1CCCN1P(=O)(COCCn1cnc2c(NC3CC3)nc(N)nc21)N1CCC[C@H]1C(=O)OCC [Example 50]
2,4870 nM,"COc1nc(N)nc2c1ncn2CCOCP(=O)(O)O [Example 2, [2-(2-Amino-6-methoxy-purin-9-yl)-ethoxymethyl]-phosphonic acid]"

# System: Du-145
# Experiment: Cytostatic cell culture assay (GI50), SRB
# Assay type: cell-based
# Settings: Homo sapiens, DU-145, 120 h; 5 days incubation
# Description: as §1, §2, §3, §4
row,Structure (SMILES),GI50
1,"Nc1nc(NC2CC2)c2ncn(CCOCP(=O)(O)O)c2n1 [Example 12, [2-(2-Amino-6-cyclopropylamino-purin-9-yl)-ethoxymethyl]-phosphonic acid]",1230 nM
2,CCOC(=O)[C@H](C)NP(=O)(COCCn1cnc2c(OC)nc(N)nc21)N[C@@H](C)C(=O)OCC [Example 28],47 nM
3,CCCCOC(=O)[C@H](Cc1ccccc1)NP(=O)(COCCn1cnc2c(OCCC)nc(N)nc21)N[C@@H](Cc1ccccc1)C(=O)OCCCC [Example 17],1 nM

# Results, then the compound that gave them:
row,GI50,Structure (SMILES)
1,250 nM,CCOC(=O)[C@@H]1CCCN1P(=O)(COCCn1cnc2c(NC3CC3)nc(N)nc21)N1CCC[C@H]1C(=O)OCC [Example 50]
2,475 nM,"COc1nc(N)nc2c1ncn2CCOCP(=O)(O)O [Example 2, [2-(2-Amino-6-methoxy-purin-9-yl)-ethoxymethyl]-phosphonic acid]"

# System: HCT-116
# Experiment: Cytostatic cell culture assay (GI50), SRB
# Assay type: cell-based
# Settings: Homo sapiens, HCT-116, 120 h; 5 days incubation
# Description: as §1, §2, §3, §4
row,Structure (SMILES),GI50
1,"Nc1nc(NC2CC2)c2ncn(CCOCP(=O)(O)O)c2n1 [Example 12, [2-(2-Amino-6-cyclopropylamino-purin-9-yl)-ethoxymethyl]-phosphonic acid]",38000 nM
2,CCOC(=O)[C@H](C)NP(=O)(COCCn1cnc2c(OC)nc(N)nc21)N[C@@H](C)C(=O)OCC [Example 28],859 nM
3,CCCCOC(=O)[C@H](Cc1ccccc1)NP(=O)(COCCn1cnc2c(OCCC)nc(N)nc21)N[C@@H](Cc1ccccc1)C(=O)OCCCC [Example 17],4 nM

# Now from value to compound:
row,GI50,Structure (SMILES)
1,3070 nM,CCOC(=O)[C@@H]1CCCN1P(=O)(COCCn1cnc2c(NC3CC3)nc(N)nc21)N1CCC[C@H]1C(=O)OCC [Example 50]
2,5900 nM,"COc1nc(N)nc2c1ncn2CCOCP(=O)(O)O [Example 2, [2-(2-Amino-6-methoxy-purin-9-yl)-ethoxymethyl]-phosphonic acid]"

# System: HCT-15
# Experiment: Cytostatic cell culture assay (GI50), SRB
# Assay type: cell-based
# Settings: Homo sapiens, HCT-15, 120 h; 5 days incubation
# Description: as §1, §2, §3, §4
row,Structure (SMILES),GI50
1,"Nc1nc(NC2CC2)c2ncn(CCOCP(=O)(O)O)c2n1 [Example 12, [2-(2-Amino-6-cyclopropylamino-purin-9-yl)-ethoxymethyl]-phosphonic acid]",38000 nM
2,CCOC(=O)[C@H](C)NP(=O)(COCCn1cnc2c(OC)nc(N)nc21)N[C@@H](C)C(=O)OCC [Example 28],> 10000 nM
3,CCCCOC(=O)[C@H](Cc1ccccc1)NP(=O)(COCCn1cnc2c(OCCC)nc(N)nc21)N[C@@H](Cc1ccccc1)C(=O)OCCCC [Example 17],336 nM

# Further lines, results first:
row,GI50,Structure (SMILES)
1,> 10000 nM,CCOC(=O)[C@@H]1CCCN1P(=O)(COCCn1cnc2c(NC3CC3)nc(N)nc21)N1CCC[C@H]1C(=O)OCC [Example 50]
2,4650 nM,"COc1nc(N)nc2c1ncn2CCOCP(=O)(O)O [Example 2, [2-(2-Amino-6-methoxy-purin-9-yl)-ethoxymethyl]-phosphonic acid]"

# System: Hs-578
# Experiment: Cytostatic cell culture assay (GI50), SRB
# Assay type: cell-based
# Settings: Hs578, 120 h; 5 days incubation
# Description: as §1, §2, §3, §4
row,Structure (SMILES),GI50
1,"Nc1nc(NC2CC2)c2ncn(CCOCP(=O)(O)O)c2n1 [Example 12, [2-(2-Amino-6-cyclopropylamino-purin-9-yl)-ethoxymethyl]-phosphonic acid]",18000 nM
2,CCOC(=O)[C@H](C)NP(=O)(COCCn1cnc2c(OC)nc(N)nc21)N[C@@H](C)C(=O)OCC [Example 28],380 nM
3,CCCCOC(=O)[C@H](Cc1ccccc1)NP(=O)(COCCn1cnc2c(OCCC)nc(N)nc21)N[C@@H](Cc1ccccc1)C(=O)OCCCC [Example 17],5 nM
4,CCOC(=O)[C@@H]1CCCN1P(=O)(COCCn1cnc2c(NC3CC3)nc(N)nc21)N1CCC[C@H]1C(=O)OCC [Example 50],308 nM
5,"COc1nc(N)nc2c1ncn2CCOCP(=O)(O)O [Example 2, [2-(2-Amino-6-methoxy-purin-9-yl)-ethoxymethyl]-phosphonic acid]",2010 nM

# System: NCI-H23
# Experiment: Cytostatic cell culture assay (GI50), SRB
# Assay type: cell-based
# Settings: Homo sapiens, NCI-H23, 120 h; 5 days incubation
# Description: as §1, §2, §3, §4
row,Structure (SMILES),GI50
1,"Nc1nc(NC2CC2)c2ncn(CCOCP(=O)(O)O)c2n1 [Example 12, [2-(2-Amino-6-cyclopropylamino-purin-9-yl)-ethoxymethyl]-phosphonic acid]",2190 nM
2,CCOC(=O)[C@H](C)NP(=O)(COCCn1cnc2c(OC)nc(N)nc21)N[C@@H](C)C(=O)OCC [Example 28],28 nM
3,CCCCOC(=O)[C@H](Cc1ccccc1)NP(=O)(COCCn1cnc2c(OCCC)nc(N)nc21)N[C@@H](Cc1ccccc1)C(=O)OCCCC [Example 17],2 nM

# Next, values leading:
row,GI50,Structure (SMILES)
1,118 nM,CCOC(=O)[C@@H]1CCCN1P(=O)(COCCn1cnc2c(NC3CC3)nc(N)nc21)N1CCC[C@H]1C(=O)OCC [Example 50]
2,589 nM,"COc1nc(N)nc2c1ncn2CCOCP(=O)(O)O [Example 2, [2-(2-Amino-6-methoxy-purin-9-yl)-ethoxymethyl]-phosphonic acid]"

# System: PC3
# Experiment: Cytostatic cell culture assay (GI50), SRB
# Assay type: cell-based
# Settings: Homo sapiens, PC-3, 120 h; 5 days incubation
# Description: as §1, §2, §3, §4
row,Structure (SMILES),GI50
1,"Nc1nc(NC2CC2)c2ncn(CCOCP(=O)(O)O)c2n1 [Example 12, [2-(2-Amino-6-cyclopropylamino-purin-9-yl)-ethoxymethyl]-phosphonic acid]",6100 nM
2,CCOC(=O)[C@H](C)NP(=O)(COCCn1cnc2c(OC)nc(N)nc21)N[C@@H](C)C(=O)OCC [Example 28],381 nM
3,CCCCOC(=O)[C@H](Cc1ccccc1)NP(=O)(COCCn1cnc2c(OCCC)nc(N)nc21)N[C@@H](Cc1ccccc1)C(=O)OCCCC [Example 17],6 nM

# The remaining lines, values ahead:
row,GI50,Structure (SMILES)
1,608 nM,CCOC(=O)[C@@H]1CCCN1P(=O)(COCCn1cnc2c(NC3CC3)nc(N)nc21)N1CCC[C@H]1C(=O)OCC [Example 50]
2,3700 nM,"COc1nc(N)nc2c1ncn2CCOCP(=O)(O)O [Example 2, [2-(2-Amino-6-methoxy-purin-9-yl)-ethoxymethyl]-phosphonic acid]"
